Assay results: patent US20230398228A1, “ERIBULIN-BASED ANTIBODY-DRUG CONJUGATES AND METHODS OF USE” (EISAI R&D MANAGEMENT CO., LTD., priority 2016, published 2023)
Entries after “also recorded” stand apart in the source; their conditions may differ.

What was measured:
[1] = tested on: OD-BRE-0631 TNBC patient-derived xenograft; conditions: 5 mg/kg single dose, five days post-treatment
[2] = tested on: NCI-H2110 cells; conditions: Example 1
Description: Typically, test reagents were serial diluted 1:4 in 2 mL deep-well dilution plates, starting at 1 μM (10 dilutions total). 100 μL of diluted samples were added to the cell plates (starting concentration of test samples at 500 nM). […] Medium was discarded, plates were washed once with 200 μL DPBS, stained with 50 μL of 0.2% Crystal Violet solution at room temperature for 15 min, and then washed extensively with tap water. Plates were air-dried, and Crystal Violet was dissolved with 200 μL of 1% SDS solution. Plates were read at 570 nm. Data was analyzed using GraphPad Prism 6. Assays were performed using a seeding density of 1,000 cells per well and compound exposure was for a total of 5 days. When shorter-term exposure was desired, medium containing cytotoxic agents was removed after 4 hours and replaced with fresh growth medium prior to 5-day incubation. For OVCAR3, CaOV3, and NCI-H2110, cells were seeded at 3,000 cells/well and incubated for 5 days with ADC.
SJSA-1 cells are a human osteosarcoma tumor cell line that are negative for folate receptor alpha.
Typically, test reagents were serially-diluted 1:4 in 2 mL deep-well dilution plates, starting at 1 μM (10 dilutions total). 100 μL of diluted samples were added to the cell plates (starting concentration of test samples at 100 nM). […] Medium was discarded, plates were washed once with 200 μL DPBS, stained with 50 μL of 0.2% Crystal Violet solution at room temperature for 15 min, and then washed extensively with tap water. Plates were air-dried, and Crystal Violet was dissolved with 200 μL of 1% SDS solution. Plates were read at 570 nm. Data was analyzed using GraphPad Prism 6.

[3] = tested on: LXFA-737 NSCLC patient-derived xenograft; experiment: NSCLC PDx model LXFA-737; assay type: in vivo, mouse; conditions: for Tumor Growth Inhibition: vehicle = 100
Excerpt: Tumor implantation: NSCLC tumor fragments were obtained from LXFA-737 tumor xenografts serially passaged in nude mice. After removal from donor mice, tumors were cut into fragments (3-4 mm edge length) and placed in phosphate-buffered saline (PBS) containing 10% penicillin/streptomycin. Recipient animals were anesthetized by inhalation of isoflurane and received unilateral or bilateral tumor implants subcutaneously in the flank. Tumor xenografts were implanted with one or two tumors per mouse at a take rate <65%. In the case of a bilateral take, one of these tumors was explanted prior to randomization. Animals and tumor implants were monitored daily until solid tumor growth was detectable in a sufficient number of animals. At randomization, the volume of growing tumors was determined. […] Animals not used for experiments were euthanized.
Body weight was measured prior to dose on each dosing day, and two times per week during the study. At the end of the study, the terminal body weight was measured and recorded.

[4] = tested on: NUGC3 cells; experiment: Crystal Violet cytotoxicity assay (Example 4), NUGC3; assay type: cell-based, human; conditions: listed as MORAb-003-VCP-eribulin
Description: Test reagents were serial diluted 1:3 in 2 mL deep-well dilution plates, starting at 200 nM (10 dilutions total). […] Medium was then discarded. […] Plates were read at 570 nm. Data was analyzed using GraphPad Prism 6.

[5] = tested on: CaOV3 cells; experiment: Crystal Violet cytotoxicity assay (Example 1), CaOV3; assay type: cell-based, human
Description: Typically, test reagents were serial diluted 1:4 in 2 mL deep-well dilution plates, starting at 1 μM (10 dilutions total). 100 μL of diluted samples were added to the cell plates (starting concentration of test samples at 500 nM). […] Medium was discarded, plates were washed once with 200 μL DPBS, stained with 50 μL of 0.2% Crystal Violet solution at room temperature for 15 min, and then washed extensively with tap water. Plates were air-dried, and Crystal Violet was dissolved with 200 μL of 1% SDS solution. Plates were read at 570 nm. […] Assays were performed using a seeding density of 1,000 cells per well and compound exposure was for a total of 5 days. When shorter-term exposure was desired, medium containing cytotoxic agents was removed after 4 hours and replaced with fresh growth medium prior to 5-day incubation. For OVCAR3, CaOV3, and NCI-H2110, cells were seeded at 3,000 cells/well and incubated for 5 days with ADC.
Screening of selected ADCs was also performed in CaOV3 (human ovarian carcinoma, FR^med(++), NCI-H2110 (human non-small cell lung carcinoma, FR^med(++), and/or OVCAR3 (human ovarian carcinoma, FR^med(++)) cells. The results of this screening are provided in Table 16.

[6] = tested on: human BM-MSCs co-cultured with MKN-74 cells; experiment: 3D co-culture system (rStomach, zPredicta), MSC differentiation by flow cytometry; assay type: cell-based; conditions: 7 days treatment, MORAb-202 10 nM, MORAb-003 10 nM, eribulin […] and 0.2 nM (Table 41)
Description: All mesenchymal stem cell (MSC)-containing 3D co-culture experiments were conducted in zPredicta, using organ-specific 3D extracellular matrix systems such as rStomach™. Bone marrow mesenchymal stem cells (BM-MSCs) in rStomach™ were co-cultured with the Nuc Red Light MKN-74 gastric cancer cell line in quadruplicate in 48-well format for 12 days. […] Prior to culture, BM-MSCs were evaluated for target antigen expression and for markers of MSC differentiation (Table 40) by flow cytometry.
Controls included untreated and vehicle-treated (PBS and DMSO) cultures. MSC differentiation was monitored by light microscopy. Once visible differentiation was observed, samples were harvested for staining and flow cytometry analysis.
Bone marrow mesenchymal stem cells (BM-MSCs) in rStomach™ (zPredicta) were co-cultured with the MKN-74 gastric cancer cell line for 12 days. […] Once visible MSC differentiation was observed by light microscopy, samples were harvested for staining and flow cytometry analysis.

[7] = 5 mg/kg single dose i.v., Day 21, n = 6
[8] = 5 mg/kg single dose i.v., Day 32, n = 6
[9] = 5 mg/kg single dose i.v., Day 74, n = 6

MORAb-003-maleimido-PEG2-Val-Cit-pAB-eribulin [MORAb-202]
cancer associated fibroblast structure by anti-α-SMA-FITC IHC, in words [1]: diminish the structure of cancer associated fibroblasts
tumor cell occupation by IHC with anti-human IgG antibody, in words [1]: occupies folate receptor alpha-expressing tumor cells
cytotoxicity on NCI-H2110 cells, in words [2]: potent cytotoxicity
IC50 ([2]; read-out: IC50 on NCI-H2110): 0.73 nM
body weight loss versus vehicle, in words ([3]; 5 mg/kg single dose): no significant body weight loss
Tumor Volume [3, 7]: 22.9 mm^3
Tumor Growth Inhibition [3, 7]: (2.3) %
Tumor Volume [3, 8]: 4.7 mm^3
Tumor Growth Inhibition [3, 8]: (0.3) %
Tumor Volume [3, 9]: 418.3 mm^3
tumor-free mice [3, 9]: (4/6 tumor-free)
mice considered tumor-free at Day 32 ([3]; 5 mg/kg single dose, six mice): Five of the six
mice that remained tumor-free through Day 74 ([3]; 5 mg/kg single dose, six mice): four
anti-tumor activity, in words ([3]; 5 mg/kg single i.v. dose): significant tumor regression
cytotoxicity on NUGC3 cells, in words [4]: little killing; also recorded: low cytotoxicity
IC50 ([5]; CaOV3 cells, mean of replicate experiments, where performed): 3.7 nM
cytotoxicity on CaOV3 cells, in words ([5]; Example 1): potent cytotoxicity
Percentage of live cells, Pericytes ([6]; PBS 14.6%): 11.4%
Percentage of live cells, Adipocytes ([6]; PBS […]): 22.6%
Percentage of live cells, MSCs ([6]; PBS […]): 43.7%
